Data on eight compounds can be found in patent US5519038A, “N,N'-bis(alkoxyalkyl)-pyridine-2,4-dicarboxylic acid diamines” (Hoechst Aktiengesellschaft, priority 1989, dated 1996).

Data set [1] can be described thus: Enteral absorbability: serum levels after intragastral administration. It counts as in vivo, female Wistar rats. The arrangement: unit not given here. The settings on record: 50 mg/kg perorally (intragastral), mean of 4 measurements. How it is done: The absorbability was investigated on Wistar rats to which the compounds according to the invention were administered intragastrally. The serum level dropped in the first hours after administration of the substance, and after about 5 hours reached a plateau which still fell only slightly. The good absorbability of the substances can be concluded from the initially very high serum level directly after administration of the substances.
Female Wistar rats of about 150 g body weight are given an intragastral administration of 50 mg/kg of the substance under investigation by means of a stomach probe.
In each case 4 rats are anesthetized after 5; 10; 15; 30; 60; 120; 180 and 240 minutes and exsanguinated via the Vena Cava. The blood is centrifuged immediately and the compound administered is extracted from the serum using ether. After the ether has been evaporated, the residue is taken up in […] of mobile phase. The mobile phase consists of 0.05M phosphoric acid and acetonitrile (4:1). 50 μl of this sample are injected into a high performance liquid chromatography column. Detection is performed under UV of 200 nm with a retention time of 2.2 minutes.

Data set [2] deals with liver hydroxyproline (proline hydroxylase and lysine hydroxylase). Briefly: Pharmacological activity: inhibition of liver hydroxyproline synthesis in CCl4-treated rats. Format: in vivo. Conditions: versus CCl4 control.
Data set [3] relates to serum 7s-(IV)-collagen (proline hydroxylase and lysine hydroxylase). Put plainly: Pharmacological activity: inhibition of serum 7s-(IV)-collagen synthesis in CCl4-treated rats. It counts as in vivo. The settings on record: versus CCl4 control.
The test system of data set [4] is proline hydroxylase. The settings on record: in words; Tschank, G. et al., 1987; cited from earlier work.
In data set [5] the test system is proline hydroxylase. The settings on record: in words; K. Majamaa et al., 1984; cited from earlier work.
For data set [6], the system named is Clq biosynthesis of macrophages. The settings on record: in words; W. Muller et al., 1978; cited from earlier work.
[7] abbreviates: 120 minutes, DL = detection limit.

Consider `COC(CNC(=O)c1ccnc(C(=O)NCC(OC)OC)c1)OC` [Example 3, Pyridine-2,4-dicarboxylic acid bis-N,N'-(2-dimethoxyethyl) amide], for which the “Serum level (x, SD)” value in data set [1] (5 minutes) worked out at 8.9 ± 3.1; in data set [1] (10 minutes) it was 11.5 ± 0.6; in data set [1] (15 minutes), 14.7 ± 1.9; in data set [1] (30 minutes) it was 10.7 ± 1.9; in data set [1] (60 minutes) it was 11.3 ± 1.5; in data set [1] (setting [7]), 5.5 ± 0.9. Also, the “Serum level (x, SD)” value in data set [1] (180 minutes, DL = detection limit) is recorded as 2.9 ± 0.5; in data set [1] (240 minutes, DL = detection limit) it was 1.7 ± 0.4.

Take `COCCNC(=O)c1ccnc(C(=O)NCCOC)c1` [19 (from SA-88-0896), N,N'-bis(2-methoxyethyl)-pyridine-2,4-dicarboxylic acid diamide, reference compound]: in data set [2] (2 × 25 mg, i.p.), the “Liver hydroxyproline [% inhibition]” value came to 55 % inhibition. Also, in data set [3] (2 × 25 mg, i.p.), the “Serum 7s-(IV)-collagen [% inhibition]” value was found to be 48 % inhibition.

Consider `O=C(O)c1ccnc(C(=O)O)c1` [pyridine-2,4-dicarboxylic acid], for which the “Activity as inhibitors in the cell culture” value in the data set on proline hydroxylase [4] was “effective as inhibitors only in very high concentrations”. In addition, the “Inhibition of proline hydroxylase” value with proline hydroxylase [5] is listed as “inhibited effectively”.

Turning to `COCCCNC(=O)c1ccnc(C(=O)NCCCOC)c1` [Example 1, Pyridine-2,4-dicarboxylic acid bis-N,N'-(methoxypropyl) amide], the “Liver hydroxyproline [% inhibition]” value in data set [2] (2 × 2 mg, p.o.) was found to be 62 % inhibition; in data set [2] (2 × 10 mg, p.o.), 90 % inhibition. Moreover, the “Serum level (x, SD)” value in data set [1] (5 minutes) is on record as 45.3 ± 15.4; in data set [1] (10 minutes), 49.8 ± 3.6; in data set [1] (15 minutes), 39.9 ± 11.0; in data set [1] (30 minutes) it was 28.1 ± 3.2; in data set [1] (60 minutes), 9.4 ± 5.5; in data set [1] (setting [7]), 0.3 ± 0.3. Moreover, the “Serum 7s-(IV)-collagen [% inhibition]” value in data set [3] (2 × 2 mg, p.o.) came out at 28 % inhibition; in data set [3] (2 × 10 mg, p.o.), 67 % inhibition.

Turning to `O=C(O)c1ccc(C(=O)O)nc1` [pyridine-2,5-dicarboxylic acid], the “Activity as inhibitors in the cell culture” value in the data set on proline hydroxylase [4] is given as “effective as inhibitors only in very high concentrations”. The “Inhibition of proline hydroxylase” value with proline hydroxylase [5] was “inhibited effectively”.

For `CC(C)OCCCNC(=O)c1ccnc(C(=O)NCCCOC(C)C)c1` [20 (from SA-88-0896), N,N'-bis(3-isopropoxypropyl)-pyridine-2,4-dicarboxylic acid diamide, reference compound], the “Liver hydroxyproline [% inhibition]” value in data set [2] (2 × 25 mg, p.o.) is reported as 49 % inhibition. In addition, the “Serum 7s-(IV)-collagen [% inhibition]” value in data set [3] (2 × 25 mg, p.o.) was 11 % inhibition.

In the case of `CCOCCCNC(=O)c1ccnc(C(=O)NCCCOCC)c1` [Example 2, Pyridine-2,4-dicarboxylic acid bis-N,N'-(ethoxypropyl)amide], the “Liver hydroxyproline [% inhibition]” value in data set [2] (2 × 2 mg, p.o.) was determined as 25 % inhibition; in data set [2] (2 × 10 mg, p.o.), 60 % inhibition. For the same compound, the “Serum level (x, SD)” value is given as 51.4 ± 11.2 in data set [1] (5 minutes); 39.2 ± 4.0 in data set [1] (10 minutes); 29.4 ± 6.7 in data set [1] (15 minutes); 15.2 ± 5.6 in data set [1] (30 minutes); 1.4 ± 1.0 in data set [1] (60 minutes). The “Serum 7s-(IV)-collagen [% inhibition]” value is listed as 2 % inhibition in data set [3] (2 × 2 mg, p.o.) and 35 % inhibition in data set [3] (2 × 10 mg, p.o.).

In the case of `c1ccc(-c2ccccn2)nc1` [α, α'-dipyridyl], the “Inhibition of Clq biosynthesis of macrophages” value in data set [6] was “leads to an inhibition of the Clq biosynthesis of macrophages”.
